Assay results: the supplement of paper PMC10307832

Tests used:
Test in all cases: relative viability (nuclei count vs DMSO), 5 days (fraction); higher = more cells survive
Sunitinib + Navitoclax = compound: CCN(CC)CCNC(=O)c1c(C)[nH]c(/C=C2\C(=O)Nc3ccc(F)cc32)c1C [Sunitinib] + CC1(C)CCC(c2ccc(Cl)cc2)=C(CN2CCN(c3ccc(C(=O)NS(=O)(=O)c4ccc(N[C@H](CCN5CCOCC5)CSc5ccccc5)c(S(=O)(=O)C(F)(F)F)c4)cc3)CC2)C1 [Navitoclax] (partner 0.5 µM)
Method in brief: (§1)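 Each reported value is a median over duplicate plates. It expresses relative viability: treated-well nuclei count divided by vehicle-well nuclei count. Lung cancer cell lines in 1536-well plates were dosed by pin tool a day after seeding, alone with one drug or with a fixed anchor-drug dose plus five library-drug doses (not always all listed) in √10 steps, and nuclei were counted after 5 days.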

Sunitinib + Vorinostat = compound: CCN(CC)CCNC(=O)c1c(C)[nH]c(/C=C2\C(=O)Nc3ccc(F)cc32)c1C [Sunitinib] + O=C(CCCCCCC(=O)Nc1ccccc1)NO [Vorinostat] (partner 1 µM)
Method in brief: as §1

Sunitinib + Pemetrexed = compound: CCN(CC)CCNC(=O)c1c(C)[nH]c(/C=C2\C(=O)Nc3ccc(F)cc32)c1C [Sunitinib] + Nc1nc2[nH]cc(CCc3ccc(C(=O)N[C@@H](CCC(=O)O)C(=O)O)cc3)c2c(=O)[nH]1 [Pemetrexed] (partner 0.2 µM)
Method in brief: as §1

Sunitinib + Linsitinib = compound: CCN(CC)CCNC(=O)c1c(C)[nH]c(/C=C2\C(=O)Nc3ccc(F)cc32)c1C [Sunitinib] + C[C@]1(O)C[C@@H](c2nc(-c3ccc4ccc(-c5ccccc5)nc4c3)c3c(N)nccn32)C1 [Linsitinib] (partner 1 µM)
Method in brief: as §1

Cell Line | relative viability (Sunitinib + Navitoclax; first compound 0.02 µM) | relative viability (Sunitinib + Navitoclax; first compound 0.06325 µM) | relative viability (Sunitinib + Navitoclax; first compound 0.2 µM) | relative viability (Sunitinib + Navitoclax; first compound 0.6325 µM) | relative viability (Sunitinib + Navitoclax; first compound 2 µM) | relative viability (Sunitinib + Vorinostat; first compound 0.02 µM) | relative viability (Sunitinib + Vorinostat; first compound 0.06325 µM) | relative viability (Sunitinib + Vorinostat; first compound 0.2 µM) | relative viability (Sunitinib + Vorinostat; first compound 0.6325 µM) | relative viability (Sunitinib + Vorinostat; first compound 2 µM) | relative viability (Sunitinib + Pemetrexed; first compound 0.02 µM) | relative viability (Sunitinib + Pemetrexed; first compound 0.06325 µM) | relative viability (Sunitinib + Pemetrexed; first compound 0.2 µM) | relative viability (Sunitinib + Pemetrexed; first compound 0.6325 µM) | relative viability (Sunitinib + Pemetrexed; first compound 2 µM) | relative viability (Sunitinib + Linsitinib; first compound 0.06325 µM) | relative viability (Sunitinib + Linsitinib; first compound 0.2 µM) | relative viability (Sunitinib + Linsitinib; first compound 0.6325 µM) | relative viability (Sunitinib + Linsitinib; first compound 2 µM) | relative viability (Sunitinib + Linsitinib; first compound 0.02 µM)
LOU-NH91 | 0.727 | 0.665 | 0.746 | 0.734 | 0.564 | 0.928 | 0.96 | 0.997 | 1 | 0.884 | 0.388 | 0.38 | 0.389 | 0.382 | 0.448 | 0.983 | 0.959 | 0.95 | 0.87 | –
LU99A | 0.807 | 0.765 | – | 0.882 | 0.788 | 0.468 | 0.625 | 0.514 | 0.516 | 0.44 | 0.199 | 0.185 | 0.198 | 0.151 | 0.162 | 0.574 | 0.602 | 0.652 | 0.474 | 0.455
LXF-289 | 0.93 | 0.94 | 1 | 0.945 | 0.915 | 0.688 | 0.857 | 0.824 | 0.779 | 0.752 | 0.882 | 0.972 | 0.925 | 0.945 | 0.874 | 0.978 | 1.02 | 0.988 | – | 0.947
NCI-H23 | 0.806 | 0.879 | 0.899 | 1.07 | 0.66 | 0.625 | 0.841 | 0.686 | 0.665 | 0.674 | 0.689 | 0.823 | 0.922 | 0.86 | 0.563 | 0.6 | 0.605 | 0.674 | 0.554 | 0.552
NCI-H322M | 1.25 | 1.18 | 1.3 | 1.25 | 1.34 | 0.9 | 0.807 | 0.931 | 0.847 | 0.702 | 0.654 | 0.601 | 0.652 | 0.62 | 0.577 | 0.969 | 0.985 | 0.942 | 0.754 | 0.871
NCI-H441 | – | 0.684 | 0.946 | 0.808 | 0.368 | 0.67 | 0.833 | – | 0.984 | 0.85 | 0.263 | 0.253 | 0.278 | 0.235 | 0.257 | 0.491 | 0.542 | 0.555 | 0.612 | 0.406
NCI-H460 | 0.862 | 1.19 | 1.37 | 1.41 | 1.08 | 0.667 | 0.848 | 1.01 | 0.91 | 0.836 | 0.0562 | 0.061 | 0.0606 | 0.0589 | 0.0505 | – | 0.95 | 0.927 | 0.699 | 0.662
NCI-H520 | – | 1.11 | 1.21 | 1.02 | 0.897 | 0.694 | 0.793 | 0.569 | 0.674 | 0.578 | 0.61 | 0.814 | 0.686 | 0.761 | 0.6 | 1.15 | 0.911 | 0.975 | 1.01 | 0.86
NCI-H596 | 0.987 | 0.802 | 1.14 | 0.945 | 0.956 | 0.734 | 0.541 | 0.594 | 0.637 | 0.564 | 0.535 | 0.465 | 0.507 | 0.582 | 0.486 | 1.02 | 1.21 | 1.14 | 0.911 | 1
NCI-H647 | 0.988 | 1.18 | – | 1.24 | 1.22 | 0.469 | 0.572 | 0.795 | 0.648 | 0.643 | 0.189 | 0.197 | 0.187 | 0.209 | 0.193 | 1.23 | 1.28 | 0.991 | 0.969 | –
NCI-H838 | 1.1 | 1.23 | 1.28 | 1.13 | 0.91 | 0.715 | 0.803 | 0.758 | 0.725 | 0.65 | 0.239 | 0.258 | 0.263 | 0.243 | 0.228 | 0.987 | 1.06 | 1.07 | 0.85 | 0.916
NCI-H1355 | 0.841 | 0.961 | 0.921 | 0.923 | 0.983 | 0.638 | 0.75 | 0.793 | 0.751 | 0.678 | 0.997 | 1.14 | 1.1 | 1.08 | – | 0.859 | 0.874 | 0.829 | 0.813 | 0.759
NCI-H1395 | 1.03 | 1.21 | 1.34 | 1.27 | 1.17 | 0.715 | 0.715 | 0.757 | 0.897 | 0.983 | 0.845 | 0.937 | 0.935 | 1.1 | 0.91 | 1.2 | 1.37 | 1.19 | – | 0.975
NCI-H1437 | 1.06 | 1.2 | 1.19 | 1.13 | 1.16 | 0.804 | 0.839 | 0.876 | 0.887 | – | 0.336 | 0.329 | 0.345 | 0.309 | 0.322 | 1 | 1.2 | – | 1.02 | 0.975
NCI-H1651 | 0.922 | 1.09 | 1.19 | 1.08 | 1.15 | 0.514 | 0.736 | 0.591 | 0.5 | 0.514 | 0.597 | 0.609 | 0.617 | 0.481 | 0.604 | 1.07 | 1.09 | 0.998 | 0.96 | 0.882
NCI-H1666 | 1.03 | 0.921 | 1.22 | 0.836 | 0.96 | 1.12 | 1.06 | 1.11 | 0.996 | – | 0.827 | 0.834 | 0.936 | 0.867 | 0.997 | 0.815 | 0.971 | 0.827 | – | 0.701
